Several values for one entry are separate records, joined by “and”; a condition that tells them apart may be missing. Equal entries are not always repeated.
Details: Liquid; for mass density: 101.33 kPa

CCCCn1cc[n+](C)c1.F[P-](F)(F)(F)(F)F [1-butyl-3-methylimidazolium hexafluorophosphate]
Details | mass density
273.1 K | 1388.85 kg/m3
278.1 K | 1384.55 kg/m3
283.1 K | 1380.27 kg/m3
288.15 K | 1375.99 kg/m3
293.15 K | 1371.72 kg/m3
298.15 K | 1367.45 kg/m3
303.15 K | 1363.19 kg/m3
313.15 K | 1354.95 kg/m3 and 1354.96 kg/m3
323.15 K | 1346.75 kg/m3
333.15 K | 1338.58 kg/m3
343.15 K | 1330.45 kg/m3
353.15 K | 1322.38 kg/m3
363.15 K | 1314.36 kg/m3

Details | viscosity
273.15 K, 100 kPa | 1717 mPa·s
278.15 K, 100 kPa | 1119 mPa·s
283.15 K, 100 kPa | 755 mPa·s
288.15 K, 100 kPa | 521 mPa·s
293.15 K, 100 kPa | 369 mPa·s
298.15 K, 100 kPa | 271 mPa·s and 273 mPa·s
298.15 K, 12100 kPa | 329 mPa·s
298.15 K, 24700 kPa | 391 mPa·s
298.15 K, 25700 kPa | 390 mPa·s
298.15 K, 50600 kPa | 546 mPa·s
298.15 K, 75800 kPa | 761 mPa·s
298.15 K, 100300 kPa | 1047 mPa·s
298.15 K, 125100 kPa | 1432 mPa·s
298.15 K, 125600 kPa | 1461 mPa·s
298.15 K, 150300 kPa | 1995 mPa·s
298.15 K, 174100 kPa | 2694 mPa·s
303.15 K, 100 kPa | 202 mPa·s
308.15 K, 100 kPa | 158.4 mPa·s
308.15 K, 900 kPa | 159.7 mPa·s
308.15 K, 9600 kPa | 179.1 mPa·s
308.15 K, 25800 kPa | 221 mPa·s
308.15 K, 50300 kPa | 302 mPa·s
308.15 K, 75600 kPa | 412 mPa·s
308.15 K, 100300 kPa | 557 mPa·s
308.15 K, 125200 kPa | 750 mPa·s
308.15 K, 140600 kPa | 898 mPa·s
308.15 K, 151000 kPa | 1016 mPa·s
313.15 K, 100 kPa | 120 mPa·s
323.15 K, 100 kPa | 73.6 mPa·s and 74.1 mPa·s and 74.9 mPa·s
323.15 K, 1300 kPa | 74.9 mPa·s
323.15 K, 3100 kPa | 76.9 mPa·s
323.15 K, 5600 kPa | 78.2 mPa·s
323.15 K, 10700 kPa | 82.7 mPa·s
323.15 K, 25800 kPa | 98.9 mPa·s
323.15 K, 50800 kPa | 127.8 mPa·s
323.15 K, 75800 kPa | 173.5 mPa·s
323.15 K, 100700 kPa | 224 mPa·s
323.15 K, 125500 kPa | 281 mPa·s
323.15 K, 150400 kPa | 371 mPa·s
323.15 K, 175200 kPa | 481 mPa·s
323.15 K, 200000 kPa | 616 mPa·s
323.15 K, 224600 kPa | 784 mPa·s
323.15 K, 249300 kPa | 995 mPa·s
333.15 K, 100 kPa | 49.5 mPa·s [middle of 4 runs]
333.15 K, 10700 kPa | 55.8 mPa·s
333.15 K, 26200 kPa | 66 mPa·s
333.15 K, 51100 kPa | 85.6 mPa·s
333.15 K, 75700 kPa | 109.8 mPa·s
333.15 K, 91100 kPa | 128 mPa·s
333.15 K, 100100 kPa | 139.4 mPa·s
343.15 K, 100 kPa | 35.1 mPa·s and 34.7 mPa·s and 34.6 mPa·s
343.15 K, 5500 kPa | 37.2 mPa·s
343.15 K, 10600 kPa | 39.2 mPa·s
343.15 K, 25700 kPa | 45.6 mPa·s
343.15 K, 50600 kPa | 58 mPa·s
343.15 K, 75600 kPa | 73.7 mPa·s
343.15 K, 100600 kPa | 92.9 mPa·s
343.15 K, 125400 kPa | 116.2 mPa·s
343.15 K, 140200 kPa | 132.6 mPa·s
343.15 K, 149900 kPa | 144.4 mPa·s
343.15 K, 172900 kPa | 176.1 mPa·s
353.15 K, 100 kPa | 25.5 mPa·s

— the NIST ThermoML archive (doi:10.1021/je050147b)
